Laboratory results as given in article PMC5267425, “Identification of small molecule modulators of HIV-1 Tat and Rev protein accumulation” (Retrovirology, 2017).
Values joined by “and” are separate entries in the source; they are usually repeats but may differ in a detail not shown here. Equal entries are not always repeated.

Tested on: alternative splicing of host transcripts in HeLa rtTA HIV∆Mls cells
Experiment: RT-PCR of host alternative splicing events (PSI), capillary electrophoresis
Assay type: cell-based
Parameters: PSI ZNF827_1 / PSI RAN_1 / PSI SEC24B_1 / PSI SMN2_1 / PSI TRIM37_1 / PSI RPS24_1 / PSI PDCL_1 / PSI SMN2_2 / PSI SETD5_1 / PSI RAI14_1 / PSI TPM1_1 / PSI SPAG9_1 / PSI POLDIP3_1 / PSI SRPK2_1 / PSI POMT1_1: concentration or dose not given beside the values
Description: To assess the effect of compounds on expression/alternative splicing of cellular RNA, two approaches were used. For both, total RNA was prepared from DMSO or compound-treated cells. In the first assay, samples were assayed by medium throughput RT-PCR to determine the inclusion levels of alternatively spliced exons and splice sites located in 73 selected events. 73 primer sets containing a fluorescently (5-FAM) labeled primer for each, were used in RT-PCR. PCR products generated were denatured in formamide and quantified using ABI Prism capillary sequencer (Life Technologies). The fragment analysis was performed on the PeakScanner software (Life Technologies) in batch mode and automated using custom scripts written in Python. The inclusion level of each exon was calculated as the amount of transcripts carrying the alternative exon relative to the total amount of all transcripts detected in the PCR reaction and results are summarized for compound-treatment in comparison to DMSO treatment. In the second assay, extracted RNA was processed using the Illumina TruSeq RNA Sample Preparation Kit (Illumina) according to the manufacturer’s instructions. The cDNA library generated was validated (passed quality control on a Bioanalyzer 1000 DNA chip (Agilent)), normalized and pooled for cluster generation. cDNA libraries were sequenced on the Illumina HiSeq 2500 (paired-end, 125 bp) with version 4 chemistry following manufacturer’s protocols. The full human genome and transcriptomic sequences were downloaded from the UCSC Genome Browser (genome.ucsc.edu) database and Ensembl (www.ensembl.org), respectively, as described by Irimia et al.. Exon annotations and genomic coordinates for alternative splicing (AS) analysis were derived from tables downloaded from the UCSC Genome Browser database. To determine gene expression (GE) or alternative splicing (AS) changes in an unbiased way, the effective number of unique mappable positions in each transcript (i.e. the effective length) was determined by aligning sequences with unique transcriptomic alignment to the human genome using Bowtie. Reads with one unique genomic alignment were then aligned against the canonical transcriptome and, for each transcript, the number of reads with one unique transcriptomic alignment were counted. The expression level of genes was quantified as corrected ‘reads per kilobase of exon model per million mapped reads’ (cRPKM), a widely used metric to estimate gene expression levels. The expression cutoff was 0.5 cRPKM, corresponding to the transcript of the gene being present if there were ≥10 reads that mapped uniquely to a single genomic locus. Approximately 19,847 Ensembl annotated protein-coding genes were compared to create a gene list of differentially expressed genes. Genes were considered differentially expressed if fold changes in cRPKM was ≥2 in compound-treated versus DMSO-treated samples.

Structure (SMILES): COc1ccc(C=NNC(=O)c2ccccc2O)cc1O [Compound 892, 2-hydroxy-N′-(3-hydroxy-4-methoxybenzylidene)benzohydrazide]
- DPSI EIF4A2_1 (chr7:187988792-187988899, mean PSI 5193892 minus DMSO, n=3, P Value 0.014): 13.67%
- PSI EIF4A2_1 (chr7:187988899-187988904, HeLa rtTA-HIV-DMls cells, replicates 25, 26, 27): 22.00 and 26.00 and 31.00
- DPSI EIF4A2_1 (chr7:187988899-187988904, mean PSI 5193892 minus DMSO, n=3, P Value 0.035): 8.33%
- PSI PDCL_1 (chr9:124628716-124628892, HeLa rtTA-HIV-DMls cells, replicates 25, 26, 27): 90.00 and 91.00 and 93.00
- DPSI PDCL_1 (chr9:124628716-124628892, mean PSI 5193892 minus DMSO, n=3, P Value 0.152): 1.67%
- PSI GM130_1 (chr9:130069293-130069374, HeLa rtTA-HIV-DMls cells, replicates 25, 26, 27): 23.00 and 18.00 and 15.00
- DPSI GM130_1 (chr9:130069293-130069374, mean PSI 5193892 minus DMSO, n=3, P Value 0.007): -14.33%
- PSI POMT1_1 (chr9:133368281-133368521, HeLa rtTA-HIV-DMls cells, replicates 25, 26, 27): 50.00 and 37.00 and 28.00
- DPSI POMT1_1 (chr9:133368281-133368521, mean PSI 5193892 minus DMSO, n=3, P Value 0.626): -4.00%
- PSI POMT1_1 (chr9:133371321-133371428, HeLa rtTA-HIV-DMls cells, replicates 25, 26, 27): 95.00 and 94.00 and 63.00
- DPSI POMT1_1 (chr9:133371321-133371428, mean PSI 5193892 minus DMSO, n=3, P Value 0.627): -5.67%
- PSI RPS24_1 (chr10:79467729-79467746, HeLa rtTA-HIV-DMls cells, replicates 25, 26, 27): 8.00 and 13.00 and 12.00
- DPSI RPS24_1 (chr10:79467729-79467746, mean PSI 5193892 minus DMSO, n=3, P Value 0.079): 3.67%
- PSI ADD3_1 (chr10:111882053-111882148, HeLa rtTA-HIV-DMls cells, replicates 25, 26, 27): 42.00 and 60.00 and 62.00
- DPSI ADD3_1 (chr10:111882053-111882148, mean PSI 5193892 minus DMSO, n=3, P Value 0.701): 3.33%
- PSI CTNND1_1 (chr11:57318058-57318129, HeLa rtTA-HIV-DMls cells, replicates 25, 26, 27): 82.00 and 76.00 and 100.00
- PSI APLP2_1 (chr11:129498717-129498884, HeLa rtTA-HIV-DMls cells, replicates 25, 26, 27): 15.00 and 18.00 and 19.00
- DPSI APLP2_1 (chr11:129498717-129498884, mean PSI 5193892 minus DMSO, n=3, P Value 0.009): -6.00%
- PSI ERC1_1 (chr12:1091641-1091725, HeLa rtTA-HIV-DMls cells, replicates 25, 26, 27): 36.00 and 55.00 and 52.00
- PSI FGFR1OP2_1 (chr12:27004715-27004828, HeLa rtTA-HIV-DMls cells, replicates 25, 26, 27): 22.00 and 15.00 (2×)
- DPSI FGFR1OP2_1 (chr12:27004715-27004828, mean PSI 5193892 minus DMSO, n=3, P Value 0.030): -11.67%
- PSI DNM1L_1 (chr12:32782066-32782143, HeLa rtTA-HIV-DMls cells, replicates 25, 26, 27): 24.00 and 37.00 and 39.00
- PSI DNM1L_1 (chr12:32782465-32782497, HeLa rtTA-HIV-DMls cells, replicates 25, 26, 27): 38.00 and 52.00 and 53.00
- DPSI DNM1L_1 (chr12:32782465-32782497, mean PSI 5193892 minus DMSO, n=3, P Value 0.447): -5.67%
- PSI NAP1L1_1 (chr12:74747418-74747520, HeLa rtTA-HIV-DMls cells, replicates 25, 26, 27): 76.00 and 78.00 and 83.00
- DPSI NAP1L1_1 (chr12:74747418-74747520, mean PSI 5193892 minus DMSO, n=3, P Value 0.123): -5.67%
- PSI NAP1L1_1 (chr12:74748956-74749041, HeLa rtTA-HIV-DMls cells, replicates 25, 26, 27): 76.00 and 75.00 and 79.00
- DPSI NAP1L1_1 (chr12:74748956-74749041, mean PSI 5193892 minus DMSO, n=3, P Value 0.018): -7.00%
- PSI MVK_1 (chr12:108501990-108502134, HeLa rtTA-HIV-DMls cells, replicates 25, 26, 27): 78.00 and 100.00 (2×)
- DPSI MVK_1 (chr12:108501990-108502134, mean PSI 5193892 minus DMSO, n=3, P Value 0.179): 16.00%
- PSI MVK_1 (chr12:108503583-108503738, HeLa rtTA-HIV-DMls cells, replicates 25, 26, 27): 64.00 and 74.00 and 45.00
- DPSI MVK_1 (chr12:108503583-108503738, mean PSI 5193892 minus DMSO, n=3, P Value 0.477): 8.33%
- PSI RAN_1 (chr12:129923082-129923127, HeLa rtTA-HIV-DMls cells, replicates 25, 26, 27): 93.00 (2×) and 94.00
- DPSI RAN_1 (chr12:129923082-129923127, mean PSI 5193892 minus DMSO, n=3, P Value 0.018): -4.67%
- PSI MBNL2_1 (chr13:96807051-96807104, HeLa rtTA-HIV-DMls cells, replicates 25, 26, 27): 11.00 and 30.00 and 29.00
- DPSI MBNL2_1 (chr13:96807051-96807104, mean PSI 5193892 minus DMSO, n=3, P Value 0.187): 10.33%
